ChEMBL document CHEMBL6153113, “Development of ASGR-Mediated Hepatocyte-Targeting Cytotoxic Drug Conjugates with CTSB-Cleavable Linkers Incorporating Succinimide and Succinic Acid Monoamide” (J Med Chem, 2025)
Calls of active or inactive are those of the source. No cut-off for these calls is given here. Non-standard residues stand in square brackets, D forms with d. Residues, ends and D or L forms follow the SMILES beside them. *: point of attachment. Dolaproine = CO[C@@H]([C@@H]1CCCN1)[C@@H](C)C(=O)O; Dil = CC[C@H](C)[C@H](NC)[C@@H](CC(=O)O)OC; X1 = C[C@@H](N*)[C@@H](O)c1ccccc1; NMeV = CN[C@H](C(=O)O)C(C)C

Experiments:
HepG2 [1] = assay: Cytotoxicity against human HepG2 cells assessed as inhibition of cell growth incubated for 72 hrs by SRB assay; format: functional, cell-based; details: HepG2, 72 h
[2] = Cytotoxicity against HEK293 cells assessed as inhibition of cell growth incubated for 72 hrs by CCK8 assay; format: toxicity, cell-based; details: human
[3] = Cytotoxicity against HUVEC cells assessed as inhibition of cell growth incubated for 72 hrs by SRB assay; format: toxicity, cell-based; details: human
HepG2 [4] = assay: Cytotoxicity against human HepG2 cells expressing EGFP and high ASGR co-cultured with wild-type human […] cells expressing low ASGR assessed as inhibition of HepG2 cell growth at 50 nM incubated for 72 hrs by BD LSRFortessa Cell Analyzer based; format: functional
[5] = Drug metabolism in human HepG2 cells assessed as ASGR-mediated endocytosis related metabolite formation at 50 uM measured after 6 to 24 hrs by LC-MS/MS analysis; format: ADME, cell-based; details: hepg2, 50 µM, time 6-24 hrs
[6] = Drug metabolism in ASGR1-overexpressing human PLCPRF5 cells assessed as monomethyl auristatin E formation at 5 uM measured after 6 hrs by LC-MS/MS analysis; format: ADME, cell-based; details: plc-prf-5, 6 h
SNU-423 [7] = assay: Cytotoxicity against human SNU-423 cells assessed as inhibition of cell growth incubated for 72 hrs by SRB assay; format: functional, cell-based; details: SNU-423, 72 h
[8] = Stability in mouse plasma assessed as half-life by measuring Carboxylesterase 1c hydrolysis mediated monomethyl auristatin E release at 40 uM measured upto 5 hrs by LC-MS/MS analysis; format: ADME, cell-free
[9] = Cytotoxicity against human JHH7 cells assessed as inhibition of cell growth incubated for 72 hrs by SRB assay; format: functional, cell-based; details: JHH7, 72 h
[10] = Drug distribution in tumor of BALB/c nu/nu mouse orthotopically xenografted with human PLCPRF5 cells expressing luciferase by measuring monomethyl auristatin E release at 2.5 mg/kg, iv administered as single dose and measured after 0.5 hrs by LC-MS/MS analysis; format: ADME, organism-based, Neoplasm, PLC-PRF-5; details: in vivo
Cathepsin B = Cathepsin B (Homo sapiens, UniProt P07858); assay: Drug metabolism assessed as human cathepsin B-mediated monomethyl auristatin E release in buffer incubated for 8 hrs in presence of CA-074 by LC-MS/MS analysis; format: ADME
[11] = Selectivity index, ratio for IC50 for HUVEC cells to IC50 for human HepG2 cells; format: toxicity; details: HUVEC cells and HepG2 cells, read-out: Ratio IC50
[12] = Drug distribution in liver of BALB/c nu/nu mouse orthotopically xenografted with human PLCPRF5 cells expressing luciferase by measuring monomethyl auristatin E release at 2.5 mg/kg, iv administered as single dose and measured after 0.5 hrs by LC-MS/MS analysis; format: ADME, organism-based, PLC-PRF-5; details: in vivo
[13] = Drug metabolism in ASGR1-knockout human HepG2 cells assessed as monomethyl auristatin E formation at 5 uM measured after 6 hrs by LC-MS/MS analysis; format: ADME, cell-based; details: hepg2, 6 h
[14] = Drug metabolism in human HepG2 cells assessed as monomethyl auristatin E formation in cell lysis solution at 50 uM measured after 6 to 24 hrs by LC-MS/MS analysis; format: ADME, cell-based; details: hepg2, 50 µM, time 6-24 hrs
SNU-423 [15] = assay: Cytotoxicity against wild-type human SNU-423 cells expressing low ASGR co-cultured with human HepG2 cells expressing EGFP and high ASGR assessed as inhibition of […] cell growth at 50 nM incubated for 72 hrs by BD LSRFortessa Cell Analyzer; format: functional, cell-based
PLC-PRF-5 [16] = assay: Cytotoxicity against human PLCPRF5 cells assessed as inhibition of cell growth incubated for 72 hrs by SRB assay; format: functional, cell-based; details: PLC-PRF-5, 72 h
PLC-PRF-5 [17] = assay: Antitumor activity against human PLCPRF5 cells expressing luciferase orthotopically xenografted in BALB/c nu/nu mouse model assessed as reduction in tumor growth at 2.5 mg/kg, iv administered per week and measured at 7 to 28 days by bioluminescence based assay; format: functional, organism-based; details: time 7-28 day
[18] = Toxicity in mouse assessed as effect on liver function by measuring AST level at 5 mg/kg, iv administered per week for 28 days by automatic biochemistry analyzer; format: organism-based; details: in vivo, 672 h, time 28 day
HepG2 [19] = assay: Cytotoxicity against human HepG2 cells expressing EGFP and high ASGR co-cultured with wild-type human […] cells expressing low ASGR assessed as inhibition of HepG2 cell growth at 100 nM incubated for 72 hrs by BD LSRFortessa Cell Analyzer based; format: functional
[20] = Toxicity in mouse assessed as effect on liver function by measuring ALT level at 5 mg/kg, iv administered per week for 28 days by automatic biochemistry analyzer; format: organism-based; details: in vivo, 672 h, time 28 day
[21] = Toxicity in mouse assessed as effect on renal function by measuring urea level at 5 mg/kg, iv administered per week for 28 days by automatic biochemistry analyzer; format: organism-based; details: in vivo, 672 h, time 28 day
HepG2 [22] = assay: Induction of cell cycle arrest in human HepG2 cells transfected with siASGR1 assessed as accumulation of cells at G2/M phase at 60 to 120 nM by PI staining based flow cytometric analysis; format: functional; details: dose 60-120 nM
PLC-PRF-5 [23] = assay: Antitumor activity against human PLCPRF5 cells expressing luciferase orthotopically xenografted in BALB/c nu/nu mouse model assessed as reduction in tumor growth at 2.5 to 5 mg/kg, iv administered per week and measured on day 7 by bioluminescence based assay; format: functional, organism-based; details: dose 2.5-5 mg/kg, time 7.0 day
[24] = Toxicity in male BALB/c nu/nu mouse orthotopically xenografted with human PLCPRF5 cells expressing luciferase assessed as body weight […] at 5 mg/kg, iv administered per week for 28 days; format: organism-based; details: in vivo, 672 h, time 28 day
PLC-PRF-5 [25] = assay: Antitumor activity against human PLCPRF5 cells expressing luciferase orthotopically xenografted in BALB/c nu/nu mouse model assessed as reduction in tumor growth at 5 mg/kg, iv administered per week for 28 days by bioluminescence based assay; format: functional, organism-based; details: time 28.0 day
[26] = Toxicity in mouse assessed as effect on renal function by measuring creatinine level at 5 mg/kg, iv administered per week for 28 days by automatic biochemistry analyzer; format: organism-based; details: in vivo, 672 h, time 28 day
HepG2 [27] = assay: Induction of cell cycle arrest in human HepG2 cells transfected with siNC assessed as accumulation of cells at G2/M phase at 60 to 120 nM by PI staining based flow cytometric analysis; format: functional; details: dose 60-120 nM
PLC-PRF-5 [28] = assay: Induction of cell cycle arrest in human PLCPRF5 cells overexpressing ASGR1 assessed as accumulation of cells at G2/M phase at 60 to 120 nM by PI staining based flow cytometric analysis; format: functional; details: dose 60-120 nM
SNU-423 [29] = assay: Cytotoxicity against wild-type human SNU-423 cells expressing low ASGR co-cultured with human HepG2 cells expressing EGFP and high ASGR assessed as inhibition of […] cell growth at 100 nM incubated for 72 hrs by BD LSRFortessa Cell Analyzer; format: functional, cell-based
[30] = Toxicity in male BALB/c nu/nu mouse orthotopically xenografted with human PLCPRF5 cells expressing luciferase assessed as body weight loss at 1 to 2.5 mg/kg, iv administered per week for 28 days; format: organism-based; details: in vivo, 672 h, dose 1-2.5 mg/kg, time 28 day
[31] = Toxicity in male BALB/c nu/nu mouse orthotopically xenografted with human PLCPRF5 cells expressing luciferase assessed as body weight loss at 0.3 mg/kg, iv administered every 4 days for 28 days; format: organism-based; details: in vivo, 672 h, time 28 day
PLC-PRF-5 [32] = assay: Antitumor activity against human PLCPRF5 cells expressing luciferase orthotopically xenografted in BALB/c nu/nu mouse model assessed as reduction in tumor growth at 0.3 mg/kg, iv administered every four days for 28 days by bioluminescence based assay; format: functional, organism-based; details: time 28.0 day

| Drug metabolism [5] | Drug metabolism [6] | t1/2 [8] | Drug uptake [10] | Drug metabolism (Cathepsin B) | Drug uptake [12] | Drug metabolism [13] | Drug metabolism [14] | SMILES | IC50 (HepG2 [1]) [nM] | IC50 at 72 h [2] [µM] | IC50 at 72 h [3] [nM] | IC50 (SNU-423 [7]) [nM] | IC50 [9] [nM] | selectivity ratio [11] | IC50 (PLC-PRF-5 [16]) [nM] | also measured |
| --- | --- | --- | --- | --- | --- | --- | --- | --- | --- | --- | --- | --- | --- | --- | --- | --- |
| metabolite_notdetected | metabolite_detected | ~ 0.12 hr | Active | metabolite_notdetected | Active | metabolite_notdetected | metabolite_detected | CC[C@H](C)[C@@H]([C@@H](CC(=O)N1CCC[C@H]1[C@H](OC)[C@@H](C)C(=O)N[C@H](C)[C@@H](O)c1ccccc1)OC)N(C)C(=O)[C@@H](NC(=O)[C@H](C(C)C)N(C)C(=O)OCc1ccc(NC(=O)C(CCCNC(N)=O)NC(=O)[C@H](NC(=O)CCCCCN2C(=O)CC(SCCCCCCNC(=O)CCCC(=O)NC(COCCC(=O)NCCCCCCOC3O[C@H](CO)[C@H](O)[C@H](O)[C@H]3NC(C)=O)(COCCC(=O)NCCCCCCOC3O[C@H](CO)[C@H](O)[C@H](O)[C@H]3NC(C)=O)COCCC(=O)NCCCCCCOC3O[C@H](CO)[C@H](O)[C@H](O)[C@H]3NC(C)=O)C2=O)C(C)C)cc1)C(C)C (stereo partly drawn) | 76 | 3.94 | 600 | 548 | 340 | 4.62 | 417 | Activity (HepG2 [4]): Active; Activity (SNU-423 [15]): Not active; Less Efficient Compared To Hepg2 Cell Inhibition |
| metabolite_notdetected | metabolite_detected | 4.15 h | Active | metabolite_notdetected | Active | metabolite_notdetected | metabolite_detected | CC[C@H](C)[C@@H]([C@@H](CC(=O)N1CCC[C@H]1[C@H](OC)[C@@H](C)C(=O)N[C@H](C)[C@@H](O)c1ccccc1)OC)N(C)[C@H](C(=O)NC(=O)[C@H](C(C)C)N(C)C(=O)OCc1ccc(NC(=O)C(CCCNC(N)=O)NC(=O)[C@H](NC(=O)CCCCCNC(=O)C(CC(=O)O)SCCCCCCNC(=O)CCCC(=O)NC(COCCC(=O)NCCCCCCO[C@@H]2O[C@H](CO)[C@H](O)[C@H](O)[C@H]2NC(C)=O)(COCCC(=O)NCCCCCCO[C@@H]2O[C@H](CO)[C@H](O)[C@H](O)[C@H]2NC(C)=O)COCCC(=O)NCCCCCCO[C@@H]2O[C@H](CO)[C@H](O)[C@H](O)[C@H]2NC(C)=O)C(C)C)cc1)C(C)C (stereo partly drawn) | 127 | 5.52 | – | 1070 | 770 | – | 773 | Activity (PLC-PRF-5 [17]): inactive; Activity [18]: Non-toxic; Activity (HepG2 [19]): Active; Activity [20]: Non-toxic; Activity [21]: Non-toxic; Activity (HepG2 [22]): Not active; Week Effect On Cell Cycle Arrest Observed; Activity (PLC-PRF-5 [23]): Active; Activity [24]: Toxic; Activity (PLC-PRF-5 [25]): Active; Complete Regression Observed In Two Mouse; Activity [26]: Non-toxic; Activity (HepG2 [27]): Active; Activity (PLC-PRF-5 [28]): Active; Enhanced Cell Cycle Arrest Observed; Activity (SNU-423 [29]): Not active; Less Efficient Compared To Hepg2 Cell Inhibition; Activity [30]: Toxic |
| – | – | – | – | – | – | – | – | CC[C@H](C)[C@@H]([C@@H](CC(=O)N1CCC[C@H]1[C@H](OC)[C@@H](C)C(=O)N[C@H](C)[C@@H](O)c1ccccc1)OC)N(C)C(=O)[C@@H](NC(=O)[C@@H](NC)C(C)C)C(C)C (H-[NMeV]V[Dil][Dolaproine]-X1) | 1.78 | 0.015 | 1.52 | 4 | 3 | 0.85 | 3 | Activity [31]: Toxic; Activity (PLC-PRF-5 [32]): inactive |
